Experimental data as given in PubChem BioAssay AID330 (DTP/NCI, 2004).
Several values for one entry are separate records, joined by “and”; a condition that tells them apart may be missing. Identical values can stand only once. Inconclusive results and toxic doses are left out. The calls were made as follows: active = survival T/C of 150% or more; inactive = T/C below 125% in these data.

System: P388 leukemia ip, CD2F1 mice, survival T/C
Test: NCI In Vivo Anticancer Drug Screen. Data for tumor model P388 Leukemia (intraperitoneal) in CD2F1 (CDF1) mice
Details: endpoint: median survival time, higher = longer survival
Method in brief: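 Mice carrying the transplanted tumor received test compound or vehicle. Survival was recorded in each group, and the value is the treated-group measurement divided by that of the vehicle-treated control group.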

[1] = dose: 25.0 mg/kg/injection, schedule: Q01DX009 (ip), vehicle: saline
[2] = dose: 50.0 mg/kg/injection, schedule: Q01DX009 (ip), vehicle: saline
[3] = dose: 60.0 mg/kg/injection, schedule: Q01DX005 (ip), vehicle: Klucel (hydroxypropylcellulose) (HPC)
[4] = dose: 120.0 mg/kg/injection, schedule: Q01DX005 (ip), vehicle: Klucel (hydroxypropylcellulose) (HPC)
[5] = dose: 240.0 mg/kg/injection, schedule: Q01DX005 (ip), vehicle: Klucel (hydroxypropylcellulose) (HPC)
[6] = dose: 50.0 mg/kg/injection, schedule: Q01DX005 (ip), vehicle: saline with Tween-80
[7] = dose: 100.0 mg/kg/injection, schedule: Q01DX005 (ip), vehicle: saline with Tween-80
[8] = dose: 200.0 mg/kg/injection, schedule: Q01DX005 (ip), vehicle: saline with Tween-80
[9] = dose: 100.0 mg/kg/injection, schedule: Q04DX002 (ip), vehicle: saline
[10] = dose: 25.0 mg/kg/injection, schedule: Q01DX005 (ip), vehicle: saline with Tween-80
[11] = dose: 50.0 mg/kg/injection, schedule: Q01DX005 (ip), vehicle: Klucel (hydroxypropylcellulose) (HPC)
[12] = dose: 100.0 mg/kg/injection, schedule: Q01DX005 (ip), vehicle: Klucel (hydroxypropylcellulose) (HPC)
[13] = dose: 200.0 mg/kg/injection, schedule: Q01DX005 (ip), vehicle: Klucel (hydroxypropylcellulose) (HPC)

Measured: T/C

C=C1C=[n+]2ccccc2=N1
inactive: [1] 93 % of control | [2] 96 % of control

COc1ccc(C2OC(=O)C(=O)C2=O)cc1OC (centres undefined)
inactive: [3] 100 % of control | [4] 107 % of control | [5] 105 % of control

CC(=O)Nc1nnc(-c2cc(=O)c3cc(C)ccc3o2)s1
inactive: [6] 92 % of control | [7] 91 % of control | [8] 90 % of control

CN(CCC[NH-])CCC[NH-].[Cl][Pd][Cl]
inactive: dose: 25.0 mg/kg/injection, schedule: Q04DX002 (ip), vehicle: saline 102 % of control | dose: 50.0 mg/kg/injection, schedule: Q04DX002 (ip), vehicle: saline 102 % of control | [9] 98 % of control

CC(C)N1C(=O)c2ccccc2S1(Cl)c1ccccc1 (centres undefined)
inactive: dose: 100.0 mg/kg/injection, schedule: Q04DX003 (ip), vehicle: Klucel (hydroxypropylcellulose) (HPC) 101 % of control | dose: 200.0 mg/kg/injection, schedule: Q04DX003 (ip), vehicle: Klucel (hydroxypropylcellulose) (HPC) 98 % of control | dose: 400.0 mg/kg/injection, schedule: Q04DX003 (ip), vehicle: Klucel (hydroxypropylcellulose) (HPC) 98 % of control

CC(N)CC(N)CC(=O)O (centres undefined)
inactive: dose: 60.0 mg/kg/injection, schedule: Q01DX005 (ip), vehicle: saline 100 % of control and 99 % of control | dose: 120.0 mg/kg/injection, schedule: Q01DX005 (ip), vehicle: saline 102 % of control and 100 % of control | dose: 240.0 mg/kg/injection, schedule: Q01DX005 (ip), vehicle: saline 90 % of control and 91 % of control

O=[N+]([O-])c1ccccc1NC1CCN(CCCC2(c3ccc(F)cc3)OCCO2)CC1
inactive: dose: 60.0 mg/kg/injection, schedule: Q01DX005 (ip), vehicle: saline with Tween-80 97 % of control | dose: 120.0 mg/kg/injection, schedule: Q01DX005 (ip), vehicle: saline with Tween-80 101 % of control | dose: 240.0 mg/kg/injection, schedule: Q01DX005 (ip), vehicle: saline with Tween-80 99 % of control

CN(C)c1ccc(N=C2C=CC(=[N+](C)C)C=C2)cc1
inactive: dose: 3.13 mg/kg/injection, schedule: Q01DX009 (ip), vehicle: Klucel (hydroxypropylcellulose) (HPC) 90 % of control | dose: 6.25 mg/kg/injection, schedule: Q01DX009 (ip), vehicle: Klucel (hydroxypropylcellulose) (HPC) 93 % of control | dose: 12.5 mg/kg/injection, schedule: Q01DX009 (ip), vehicle: Klucel (hydroxypropylcellulose) (HPC) 101 % of control | dose: 25.0 mg/kg/injection, schedule: Q01DX009 (ip), vehicle: Klucel (hydroxypropylcellulose) (HPC) 114 % of control

O=C1CCSC(=S)N1C(=O)c1ccccc1
inactive: dose: 50.0 mg/kg/injection, schedule: Q01DX009 (ip), vehicle: Klucel (hydroxypropylcellulose) (HPC) 104 % of control | dose: 100.0 mg/kg/injection, schedule: Q01DX009 (ip), vehicle: Klucel (hydroxypropylcellulose) (HPC) 104 % of control | dose: 200.0 mg/kg/injection, schedule: Q01DX009 (ip), vehicle: Klucel (hydroxypropylcellulose) (HPC) 109 % of control

NC(=S)N/N=C1/C(=O)N(c2ccc(S(N)(=O)=O)cc2)C(=O)C1C(=O)Nc1ccc(S(N)(=O)=O)cc1 (centres undefined)
inactive: dose: 25.0 mg/kg/injection, schedule: Q04DX002 (ip), vehicle: saline with Tween-80 104 % of control | dose: 50.0 mg/kg/injection, schedule: Q04DX002 (ip), vehicle: saline with Tween-80 100 % of control | dose: 100.0 mg/kg/injection, schedule: Q04DX002 (ip), vehicle: saline with Tween-80 99 % of control and 100 % of control

O=C(O)c1nc2cn1/C=C\C=NCC1=CN3C=CC=NC3(C(=O)O)N1C2 (centres undefined)
inactive: dose: 25.0 mg/kg/injection, schedule: Q01DX009 (ip), vehicle: saline with Tween-80 101 % of control | dose: 50.0 mg/kg/injection, schedule: Q01DX009 (ip), vehicle: saline with Tween-80 109 % of control | dose: 100.0 mg/kg/injection, schedule: Q01DX009 (ip), vehicle: saline with Tween-80 95 % of control

CC(C)(C)OC(=O)NNS(=O)(=O)CCC(N)C(=O)O (centres undefined)
inactive: dose: 12.5 mg/kg/injection, schedule: Q01DX009 (ip), vehicle: other 106 % of control | dose: 25.0 mg/kg/injection, schedule: Q01DX009 (ip), vehicle: other 106 % of control | dose: 50.0 mg/kg/injection, schedule: Q01DX009 (ip), vehicle: other 97 % of control | dose: 100.0 mg/kg/injection, schedule: Q01DX009 (ip), vehicle: other 97 % of control | dose: 200.0 mg/kg/injection, schedule: Q01DX009 (ip), vehicle: other 100 % of control

COc1ccccc1NC(=O)Oc1ccc(C(C)(CCC(=O)O)c2ccc(OC(=O)Nc3ccccc3OC)cc2)cc1
inactive: [10] 103 % of control | [6] 101 % of control and 104 % of control and 97 % of control | [7] 102 % of control and 105 % of control and 94 % of control | [8] 90 % of control and 97 % of control | dose: 400.0 mg/kg/injection, schedule: Q01DX005 (ip), vehicle: saline with Tween-80 102 % of control

[CH3][Ge]1([CH3])[CH2]C(c2ccccc2)C(c2ccccc2)[CH2]1 (centres undefined)
inactive: [3] 100 % of control | [4] 97 % of control | [5] 98 % of control

CN(C)CCC(=O)C(=Cc1ccccc1)C(=O)CCN(C)C
inactive: dose: 50.0 mg/kg/injection, schedule: Q01DX005 (ip), vehicle: saline 114 % of control | dose: 100.0 mg/kg/injection, schedule: Q01DX005 (ip), vehicle: saline 99 % of control | dose: 200.0 mg/kg/injection, schedule: Q01DX005 (ip), vehicle: saline 101 % of control

CNC(=O)N(CCO)/N=C\c1ccc([N+](=O)[O-])o1
inactive: [11] 99 % of control | [12] 97 % of control | [13] 103 % of control

CC1(C)COC(c2ccc(C(C)(C)C)cc2)=N1
inactive: dose: 3.13 mg/kg/injection, schedule: Q01DX009 (ip), vehicle: saline with Tween-80 105 % of control | dose: 6.25 mg/kg/injection, schedule: Q01DX009 (ip), vehicle: saline with Tween-80 105 % of control | dose: 12.5 mg/kg/injection, schedule: Q01DX009 (ip), vehicle: saline with Tween-80 98 % of control

CC(C)CCCC(C)C1CCC2C3CCC4CCC=CC4(C)C3CCC12C (centres undefined)
inactive: dose: 30.0 mg/kg/injection, schedule: Q01DX005 (ip), vehicle: Klucel (hydroxypropylcellulose) (HPC) 93 % of control | [3] 90 % of control | [4] 90 % of control | [5] 91 % of control

[O-]c1ccc[n+]2c1sc1ncccc12 (tested in a mixture with another compound)
inactive: [6] 107 % of control | [7] 107 % of control | [8] 105 % of control

Cc1cc(C)c2c(=O)n(-c3ccc(Br)cc3)c(=S)n(-c3ccc(Br)cc3)c2n1
inactive: dose: 12.5 mg/kg/injection, schedule: Q01DX005 (ip), vehicle: saline with Tween-80 99 % of control | [10] 97 % of control | [6] 87 % of control and 95 % of control

N#CNC(=S)S
inactive: [9] 105 % of control | dose: 200.0 mg/kg/injection, schedule: Q04DX002 (ip), vehicle: saline 109 % of control | dose: 400.0 mg/kg/injection, schedule: Q04DX002 (ip), vehicle: saline 105 % of control

CCS(=O)(=O)/C=C\S(=O)(=O)CC
inactive: dose: 1.56 mg/kg/injection, schedule: Q04DX003 (ip), vehicle: Klucel (hydroxypropylcellulose) (HPC) 100 % of control | dose: 3.12 mg/kg/injection, schedule: Q04DX003 (ip), vehicle: Klucel (hydroxypropylcellulose) (HPC) 98 % of control | dose: 6.25 mg/kg/injection, schedule: Q04DX003 (ip), vehicle: Klucel (hydroxypropylcellulose) (HPC) 100 % of control

CCCCCCCCCCCCCCSCCCCCCCCCCCCCC
inactive: dose: 25.0 mg/kg/injection, schedule: Q01DX005 (ip), vehicle: Klucel (hydroxypropylcellulose) (HPC) 100 % of control | [11] 99 % of control | [12] 92 % of control | [13] 92 % of control

CCOC(=O)C(C(=O)OCC)=C1C(=O)Nc2ccccc21
inactive: dose: 100.0 mg/kg/injection, schedule: Q04DX002 (ip), vehicle: Klucel (hydroxypropylcellulose) (HPC) 106 % of control | dose: 200.0 mg/kg/injection, schedule: Q04DX002 (ip), vehicle: Klucel (hydroxypropylcellulose) (HPC) 106 % of control | dose: 400.0 mg/kg/injection, schedule: Q04DX002 (ip), vehicle: Klucel (hydroxypropylcellulose) (HPC) 109 % of control

CC(=O)/C(C)=C/C(=O)O
inactive: [1] 100 % of control | dose: 25.0 mg/kg/injection, schedule: Q04DX003 (ip), vehicle: saline 104 % of control | [2] 100 % of control | dose: 50.0 mg/kg/injection, schedule: Q04DX003 (ip), vehicle: saline 122 % of control | dose: 100.0 mg/kg/injection, schedule: Q01DX009 (ip), vehicle: saline 109 % of control | dose: 100.0 mg/kg/injection, schedule: Q04DX003 (ip), vehicle: saline 100 % of control
